ChEMBL document CHEMBL1154665, “Novel compounds designed as antistress agents” (J Med Chem, 2009)

Legend:
Rattus norvegicus [1] = assay: Antistress activity against food and water deprivation-induced stress in rat assessed as reduction in malondialdehyde formation at 0.055 mmol/kg, ip after 3 hrs; assay type: functional
Rattus norvegicus [2] = assay: Antistress activity against food and water deprivation-induced stress in rat assessed as increase in liver weight measured per 100 gm of body weight at 0.055 mmol/kg, ip after 3 hrs; assay type: functional
Rattus norvegicus [3] = assay: Antihyperlipidemic activity in triton WR 1339 treated rat assessed as LDL-cholesterol at 56 umol/kg, ip measured after 24 hrs; assay type: functional
Brain = assay: Antioxidant activity in rat brain homogenate assessed as malondialdehyde release; assay type: functional, tissue-based
Rattus norvegicus [4] = species on record: Rattus norvegicus; assay: Antistress activity in rat assessed as decrease in stress-induced oxidative N-demethylation of erythromycin; assay type: functional; set-up: scale not given: the % may be the effect or the level left
Rattus norvegicus [5] = assay: Antistress activity against food and water deprivation-induced stress in rat assessed as increase in thymus weight measured per 100 gm of body weight at 0.055 mmol/kg, ip after 3 hrs; assay type: functional
Rattus norvegicus [6] = assay: Antistress activity against food and water deprivation-induced stress in rat assessed as change in body weight at 0.055 mmol/kg, ip after 3 hrs; assay type: functional
Rattus norvegicus [7] = species on record: Rattus norvegicus; assay: Antistress activity in rat assessed as decrease in stress-induced hepatic cytochrome P450 level by spectroscopically; assay type: functional; set-up: scale not given: the % may be the effect or the level left
Rattus norvegicus [8] = assay: Antihyperlipidemic activity in triton WR 1339 treated rat assessed as triglyceride at 56 umol/kg, ip measured after 24 hrs; assay type: functional
Rattus norvegicus [9] = assay: Antistress activity against food and water deprivation-induced stress in rat assessed as increase in adrenal weight measured per 100 gm of body weight at 0.055 mmol/kg, ip after 3 hrs; assay type: functional
Rattus norvegicus [10] = assay: Antihyperlipidemic activity in triton WR 1339 treated rat assessed as plasma total cholesterol at 56 umol/kg, ip measured after 24 hrs; assay type: functional
Rattus norvegicus [11] = assay: Antistress activity against food and water deprivation-induced stress in rat assessed as decrease in uropepsinogen level in urine at 0.055 mmol/kg, ip after 3 hrs; assay type: functional

## Cc1c(C)c2c(c(C)c1O)CC[C@](C)(C(=O)NCCCC(=O)OC1N=C(c3ccccc3Cl)c3cc(Cl)ccc3NC1=O)O2 (some centres undefined)
Rattus norvegicus [1]
  Activity: 37.5 nmol/mg
Rattus norvegicus [2]
  Activity: 4.2 mg
Rattus norvegicus [3]
  Activity: 40%
Brain
  IC50: 1.1 µM
Rattus norvegicus [4]
  Activity: 40%
Rattus norvegicus [5]
  Activity: 117 mg
Rattus norvegicus [6]
  Activity: -10%
Rattus norvegicus [7]
  Activity: 35%
Rattus norvegicus [8]
  Activity: 40%
Rattus norvegicus [9]
  Activity: 34 mg
Rattus norvegicus [10]
  Activity: 40%
Rattus norvegicus [11]
  Activity: 34 kiloU/hr

## CC(C)(C)c1cc(C(=O)O)cc(C(C)(C)C)c1O
Brain
  IC50: 257 µM

## Cc1c(C)c2c(c(C)c1O)CC[C@](C)(C(=O)O)O2 [(R)-TROLOX]
Brain
  IC50: 25 µM

## CC(C)(C)c1cc(C(=O)NCCCC(=O)OC2N=C(c3ccccc3Cl)c3cc(Cl)ccc3NC2=O)cc(C(C)(C)C)c1O (centres undefined)
Rattus norvegicus [1]
  Activity: 41.2 nmol/mg
Rattus norvegicus [2]
  Activity: 4.5 mg
Rattus norvegicus [3]
  Activity: 40%
Brain
  IC50: 24 µM
Rattus norvegicus [5]
  Activity: 151 mg
Rattus norvegicus [6]
  Activity: -3.8%
Rattus norvegicus [8]
  Activity: 40%
Rattus norvegicus [9]
  Activity: 40 mg
Rattus norvegicus [10]
  Activity: 40%
Rattus norvegicus [11]
  Activity: 30 kiloU/hr
